What was measured:
[1] = cited from earlier work
[2] = amphotericin B lung-residence half-life (bronchioalveolar lavage / lung tissue homogenization); assay type: in vivo; details: pulmonary administration
fungus = test: minimum inhibitory concentration (MIC) of amphotericin B; assay type: cell-based; details: midrange of the MIC range, 300′ of FIG. 25
Protocol: In one version, an aerosolizeable pharmaceutical composition comprising amphotericin B is administered to the lungs and/or nasal cavity of a patient in a manner that results in an amphotericin B concentration greater than a minimum inhibitory concentration (MIC) of the fungus. The MIC is defined as the lowest concentration of amphotericin B that inhibits fungal growth. The MIC may be expressed as a particular concentration value or as a range of concentrations. A method according to one or more embodiments of the present invention administers a sufficient amount of the pharmaceutical composition to achieve a target lung concentration of amphotericin B that falls within the range of MIC values or is above a particular MIC value. In another version, the target lung concentration of amphotericin B exceeds the MIC range. In another version, the target lung concentration of amphotericin B exceeds the lowest value in an MIC range. […] As used herein, unless otherwise specified, the MIC value shall be taken to be the particular value when a particular MIC value is determined and shall be taken to be a midrange value when a range of MIC values is determined. […]
The MIC value for amphotericin B in this version has been determined to range from about 0.5 μg/g to about 4 μg/g, as shown by block 300. […]

Row | Compound | solubility in water [1] | amphotericin B lung-residence half-life in lung epithelial fluid ([2]; lung epithelial fluid, measured by bronchioalveolar lavage) | amphotericin B lung-residence half-life in lung tissue ([2]; lung tissue, measured by lung tissue homogenization) | midrange MIC value (fungus)
1 | CCCCCCCCCCCCCCCC(=O)OC[C@H](COP(=O)([O-])OCC[N+](C)(C)C)OC(=O)CCCCCCCCCCCCCCC [DPPC, dipalmitoylphosphatidylcholine] | about 10^−10 mol/L |  |  | 
2 | C[C@@H]1[C@H](O)[C@@H](C)/C=C/C=C/C=C/C=C/C=C/C=C/C=C/[C@H](O[C@@H]2O[C@H](C)[C@@H](O)[C@H](N)[C@@H]2O)C[C@@H]2O[C@](O)(C[C@@H](O)C[C@@H](O)[C@H](O)CC[C@@H](O)C[C@@H](O)CC(=O)O[C@H]1C)C[C@H](O)[C@H]2C(=O)O [amphotericin B] |  | at least 10 hours | at least 1 week | about 2.25 μg/g

From patent US20090032427A1, “Receptacles and Kits, Such as for Dry Powder Packaging” (Nektar Therapeutics, priority 2005, published 2009)
